Data taken from patent US20260183275A1, “SUBSTITUTED QUINOLONE COMPOUNDS USEFUL AS INHIBITORS OF TLR9” (Bristol-Myers Squibb Company, priority 2022, published 2026).

What was measured:
Type in all cases: cell-based
human TLR9 = biological target: T1, human TLR9 (Homo sapiens, UniProt Q9NR96); test: TLR9 inhibition reporter assay (HEK-Blue cells, SEAP reporter); conditions: HEK-Blue cells overexpressing human TLR9; stimulated with ODN2006 5 nM; SEAP read after 22 hour; dose range 0.05 nM-50 μM
T1 construct: host or cells: HEK-Blue cells
T1 sequence (Q9NR96 26-1032): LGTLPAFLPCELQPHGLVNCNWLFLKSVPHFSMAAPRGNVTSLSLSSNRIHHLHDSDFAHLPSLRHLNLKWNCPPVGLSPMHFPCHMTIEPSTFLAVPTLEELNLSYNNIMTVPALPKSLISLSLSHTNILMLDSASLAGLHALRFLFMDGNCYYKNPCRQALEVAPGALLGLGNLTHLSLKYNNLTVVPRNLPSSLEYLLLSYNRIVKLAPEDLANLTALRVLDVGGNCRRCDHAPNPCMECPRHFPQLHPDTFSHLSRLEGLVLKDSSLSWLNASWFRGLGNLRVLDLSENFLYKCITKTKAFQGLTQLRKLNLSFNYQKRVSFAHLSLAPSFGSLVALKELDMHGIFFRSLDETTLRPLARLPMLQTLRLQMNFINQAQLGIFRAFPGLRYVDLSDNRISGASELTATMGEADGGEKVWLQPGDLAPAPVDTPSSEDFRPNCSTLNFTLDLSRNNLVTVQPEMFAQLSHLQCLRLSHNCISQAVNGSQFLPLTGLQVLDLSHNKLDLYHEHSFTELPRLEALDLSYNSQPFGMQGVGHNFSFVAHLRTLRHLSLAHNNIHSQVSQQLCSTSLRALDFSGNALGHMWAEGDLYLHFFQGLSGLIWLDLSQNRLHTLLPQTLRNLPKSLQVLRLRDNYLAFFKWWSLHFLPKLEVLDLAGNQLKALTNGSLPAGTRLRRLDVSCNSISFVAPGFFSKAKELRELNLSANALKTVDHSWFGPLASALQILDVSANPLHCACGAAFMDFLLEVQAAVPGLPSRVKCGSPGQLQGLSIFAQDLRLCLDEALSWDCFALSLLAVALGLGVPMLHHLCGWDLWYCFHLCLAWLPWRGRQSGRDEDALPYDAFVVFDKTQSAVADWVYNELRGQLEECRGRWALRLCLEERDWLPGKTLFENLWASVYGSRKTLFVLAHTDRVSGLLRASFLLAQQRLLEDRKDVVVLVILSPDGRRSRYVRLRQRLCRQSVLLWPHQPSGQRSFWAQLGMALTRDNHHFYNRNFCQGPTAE
Summary of the method: (§1)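 HEK-Blue cells with NF-κB/AP-1-driven SEAP pre-treated 30 min with compounds (0.05 nM-50 μM), then stimulated with gardiquimod 7.5 μM (TLR7), R848 15.9 μM (TLR8) or ODN2006 5 nM (TLR9). SEAP read after 22 h at 37° C; % inhibition relative to agonist+DMSO and reference-inhibitor wells.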

human TLR7 = biological target: T2, human TLR7 (Homo sapiens, UniProt Q9NYK1); test: TLR7 inhibition reporter assay (HEK-Blue cells, SEAP reporter); conditions: HEK-Blue cells overexpressing human TLR7; stimulated with gardiquimod 7.5 μM; SEAP read after 22 hour; dose range 0.05 nM-50 μM
T2 construct: host or cells: HEK-Blue cells
T2 sequence (Q9NYK1 27-1049): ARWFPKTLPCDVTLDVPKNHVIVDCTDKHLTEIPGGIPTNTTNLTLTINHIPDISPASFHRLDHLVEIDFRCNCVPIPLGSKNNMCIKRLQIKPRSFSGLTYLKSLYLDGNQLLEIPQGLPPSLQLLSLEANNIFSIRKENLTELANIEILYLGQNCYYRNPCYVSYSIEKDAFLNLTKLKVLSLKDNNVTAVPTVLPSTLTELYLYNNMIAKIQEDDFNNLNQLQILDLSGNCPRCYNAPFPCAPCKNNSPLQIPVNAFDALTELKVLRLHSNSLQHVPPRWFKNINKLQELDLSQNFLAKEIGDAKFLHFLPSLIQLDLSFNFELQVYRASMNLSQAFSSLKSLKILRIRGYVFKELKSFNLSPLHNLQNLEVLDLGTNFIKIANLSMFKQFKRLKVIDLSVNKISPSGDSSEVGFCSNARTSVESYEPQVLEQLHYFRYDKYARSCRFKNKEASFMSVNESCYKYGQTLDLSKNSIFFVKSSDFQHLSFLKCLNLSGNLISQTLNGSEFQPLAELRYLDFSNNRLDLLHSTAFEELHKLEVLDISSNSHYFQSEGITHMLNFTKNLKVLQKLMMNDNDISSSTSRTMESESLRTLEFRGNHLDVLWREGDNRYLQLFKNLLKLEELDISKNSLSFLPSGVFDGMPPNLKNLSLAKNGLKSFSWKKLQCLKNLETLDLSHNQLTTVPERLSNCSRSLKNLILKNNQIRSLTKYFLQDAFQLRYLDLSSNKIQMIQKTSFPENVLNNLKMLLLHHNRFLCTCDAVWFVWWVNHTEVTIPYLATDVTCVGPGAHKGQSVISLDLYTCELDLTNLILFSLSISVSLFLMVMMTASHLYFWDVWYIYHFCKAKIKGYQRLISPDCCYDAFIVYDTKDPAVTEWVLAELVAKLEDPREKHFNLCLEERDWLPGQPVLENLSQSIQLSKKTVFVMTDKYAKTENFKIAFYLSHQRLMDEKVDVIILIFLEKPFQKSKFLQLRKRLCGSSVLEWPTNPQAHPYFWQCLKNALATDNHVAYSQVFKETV
Summary of the method: as §1

human TLR8 = biological target: T3, human TLR8 (Homo sapiens, UniProt Q9NR97); test: TLR8 inhibition reporter assay (HEK-Blue cells, SEAP reporter); conditions: HEK-Blue cells overexpressing human TLR8; stimulated with R848 15.9 μM; SEAP read after 22 hour; dose range 0.05 nM-50 μM
T3 construct: host or cells: HEK-Blue cells
T3 sequence (Q9NR97 27-1041): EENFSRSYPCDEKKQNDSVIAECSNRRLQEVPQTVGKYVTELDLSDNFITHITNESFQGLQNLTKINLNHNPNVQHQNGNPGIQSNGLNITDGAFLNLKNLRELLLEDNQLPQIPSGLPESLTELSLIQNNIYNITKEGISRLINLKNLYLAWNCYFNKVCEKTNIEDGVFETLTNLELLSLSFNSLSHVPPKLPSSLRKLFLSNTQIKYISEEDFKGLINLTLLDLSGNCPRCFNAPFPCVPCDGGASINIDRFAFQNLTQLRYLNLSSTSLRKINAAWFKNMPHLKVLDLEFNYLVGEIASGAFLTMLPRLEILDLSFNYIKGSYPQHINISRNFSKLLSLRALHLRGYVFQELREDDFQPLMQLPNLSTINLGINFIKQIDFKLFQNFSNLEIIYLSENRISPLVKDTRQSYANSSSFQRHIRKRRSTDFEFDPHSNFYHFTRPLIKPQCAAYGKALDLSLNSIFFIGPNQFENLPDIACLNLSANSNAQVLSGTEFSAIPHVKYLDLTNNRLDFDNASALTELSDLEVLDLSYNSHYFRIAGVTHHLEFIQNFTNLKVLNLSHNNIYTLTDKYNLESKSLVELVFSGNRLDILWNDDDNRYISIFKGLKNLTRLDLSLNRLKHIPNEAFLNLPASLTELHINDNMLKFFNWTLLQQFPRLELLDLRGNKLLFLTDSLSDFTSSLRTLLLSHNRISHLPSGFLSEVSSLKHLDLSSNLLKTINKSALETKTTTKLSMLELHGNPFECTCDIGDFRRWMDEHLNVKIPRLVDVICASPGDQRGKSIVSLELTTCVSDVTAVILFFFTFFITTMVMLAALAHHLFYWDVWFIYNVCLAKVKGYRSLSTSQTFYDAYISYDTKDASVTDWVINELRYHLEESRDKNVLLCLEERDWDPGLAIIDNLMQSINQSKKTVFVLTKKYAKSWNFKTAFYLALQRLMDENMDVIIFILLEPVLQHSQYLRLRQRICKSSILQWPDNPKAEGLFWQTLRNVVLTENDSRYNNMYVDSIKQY
Summary of the method: as §1

SMILES | IC50 (human TLR9) [µM] | IC50 (human TLR7) [µM] | IC50 (human TLR8) [µM]
COc1ccc(-c2cc3cc(-c4ccc(N5CCN(C(C)C)CC5)cc4)ccc3[nH]c2=O)cc1OC [Example 43, 3-(3,4-dimethoxyphenyl)-6-{4-[4-(propan-2-yl)piperazin-1-yl]phenyl}-1,2-dihydroquinolin-2-one] | 0.553 | 5.02 | ≥ 50
CC(C)N1CCN(c2ccc(-c3ccc4[nH]c(=O)c(-c5ccccc5Cl)cc4c3)cc2)CC1 [Example 44, 3-(2-chlorophenyl)-6-{4-[4-(propan-2-yl)piperazin-1-yl]phenyl}-1,2-dihydroquinolin-2-one] | 0.701 | 5.61 | ≥ 50
CC(C)N1CCN(c2ccc(-c3ccc4[nH]c(=O)c(-c5cccc(C(F)(F)F)c5)cc4c3)cc2)CC1 [Example 45, 6-{4-[4-(propan-2-yl)piperazin-1-yl]phenyl}-3-[3-(trifluoromethyl)phenyl]-1,2-dihydroquinolin-2-one] | 0.734 | ≥ 50 | ≥ 50
CC(C)N1CCN(c2ccc(-c3ccc4[nH]c(=O)c(-c5cccc(OC(F)(F)F)c5)cc4c3)cc2)CC1 [Example 46, 6-{4-[4-(propan-2-yl)piperazin-1-yl]phenyl}-3-[3-(trifluoromethoxy)phenyl]-1,2-dihydroquinolin-2-one] | 0.781 | ≥ 50 | ≥ 50
CC(C)N1CCN(c2ccc(-c3ccc4[nH]c(=O)c(-c5cccc(F)c5)cc4c3)cc2)CC1 [Example 47, 3-(3-fluorophenyl)-6-{4-[4-(propan-2-yl)piperazin-1-yl]phenyl}-1,2-dihydroquinolin-2-one] | 0.857 | 8.62 | ≥ 50
CC(C)N1CCN(c2ccc(-c3ccc4[nH]c(=O)c(-c5cn(C)c6ccccc56)cc4c3)cc2)CC1 [Example 48, 3-(1-methyl-1H-indol-3-yl)-6-(4-[4-(propan-2-yl)piperazin-1-yl]phenyl}-1,2-dihydroquinolin-2-one] | 1.16 | 2.15 | 6.88
CNC(=O)Nc1ccc(-c2cc3cc(-c4ccc(N5CCN(C(C)C)CC5)cc4)ccc3[nH]c2=O)cc1 [Example 49, 3-methyl-1-[4-(2-oxo-6-{4-[4-(propan-2-yl)piperazin-1-yl]phenyl}-1,2-dihydroquinolin-3-yl)phenyl]urea] | 0.239 | 5.42 | ≥ 50
CC(C)N1CCN(c2ccc(-c3ccc4c(c3)cc(-c3ccc(NC(=O)c5ccccn5)cc3)c(=O)n4C)cc2)CC1 [Example 50, N-[4-(1-methyl-2-oxo-6-{4-[4-(propan-2-yl)piperazin-1-yl]phenyl}-1,2-dihydroquinolin-3-yl)phenyl]pyridine-2-carboxamide] | 0.242 | 15.6 | ≥ 50
CC(C)N1CCN(c2ccc(-c3ccc4[nH]c(=O)c(-c5ccc(N(C)C6CN(C)C6)cc5)cc4c3)cc2)CC1 [Example 51, 3-{4-[methyl(1-methylazetidin-3-yl)amino]phenyl}-6-{4-[4-(propan-2-yl)piperazin-1-yl]phenyl}-1,2-dihydroquinolin-2-one] | 0.242 | 1.34 | 47
CCC(=O)Nc1ccc(-c2cc3cc(-c4ccc(N5CCN(C(C)C)CC5)cc4)ccc3[nH]c2=O)cc1 [Example 52, N-[4-(2-oxo-6-{4-[4-(propan-2-yl)piperazin-1-yl]phenyl}-1,2-dihydroquinolin-3-yl)phenyl]propanamide] | 0.243 | 15.1 | ≥ 50
CC(C)N1CCN(c2ccc(-c3ccc4[nH]c(=O)c(-c5ccc(C(N)=O)cc5)cc4c3)cc2)CC1 [Example 53, 4-(2-oxo-6-{4-[4-(propan-2-yl)piperazin-1-yl]phenyl}-1,2-dihydroquinolin-3-yl)benzamide] | 0.257 | 4.52 | 1.24
